Source: patent US20070275984A1, “Novel Thieno-Pyridine and Thieno-Pyrimidine Derivatives and Their Use as Positive Allosteric Modulators of Mglur2-Receptors” (JANSSEN PHARMACEUTICA N.V., priority 2004, published 2007)
Several values for one entry are separate records, joined by “and”; a condition that tells them apart may be missing. Equal values may be shown once.

Tests used:
native rat mGluR2 = molecular target: T1, native rat mGluR2 (Rattus norvegicus, UniProt P31421); test: [35S]GTPγS binding assay using cortical rat brain membranes, potentiation of a selective mGluR2 agonist; assay type: biochemical; conditions: for Activity: left-ward shift of agonist mGluR2 concentration-response curve: rat cortical membranes, selective mGluR2 agonist such as LY379268, in the presence of 3 or 10 μM of positive allosteric modulator
T1 construct: from tissue; host or cells: cerebral cortex of Sprague-Dawley rats (membrane preparation)
From the text: The [^35S]GTPγS binding is a functional membrane-based assay used to study G-protein coupled receptor (GPCR) function. This method is using a binding assay to assess the initial step in receptor-mediated G protein activation in membranes prepared from cells expressing recombinant GPCR or using membranes from discrete area of the rat brain. In brief, the assay is measuring the activation of G proteins by catalyzing the exchange of guanosine 5′-diphosphate (GDP) by guanosine 5′-triphosphate (GTP) at the α subunit. The GTP-bounded G proteins dissociate into two subunits, Gα-GTP and Gβγ, which in turn regulate intracellular enzymes and ion channels. GTP is rapidly hydrolysed by the Gα-subunit (GTPases) and the G protein is deactivated and ready for new GTP exchange cycle (Harper (1998) Curr Protoc Pharmacol 2.6.1-10, John Wiley & Sons, Inc.). [^35S]GTPγS, a non-hydrolyzed analogue of GTP, is used for this purpose.
This method is widely used to study receptor activation of G protein in membranes prepared from rat brain tissue, including mGluR2 receptors (Schaffhauser et al 2003, Pinkerton et al, 2004). mGluR2 receptors are expressed in the rat brain cortex (Mutel et al (1998) J. Neurochem. 71:2558-64; Schaffhauser et al (1998) Mol. Pharmacol. 53:228-33) and are coupled to Gαi-protein, a preferential coupling for this method.
[^35S]GTPγS binding assay using cortical rat brain membranes preparation was used and adapted from Schaffhauser et al ((2003) Mol. Pharmacol. 4:798-810) for the detection of the positive allosteric modulator properties of the compounds of this invention on native rat mGluR2. In order to eliminate the possible interference with group III Gαi-protein coupled mGluRs (mGluR4, mGluR7, mGluR8; mGluR6 is not expressed in the cortex (Laurie et al (1997) Neuropharmacol. 36:145-52)), the potentiation of the response to a selective mGluR2 agonist, such as DCG-IV (Cartmell et al. (1998) Br. J. Pharmacol. 123(3):497-504) or LY379268 (Monn et al. (1999) J. Med. Chem 42:1027-40), by compounds described in the present invention was performed.
Membrane preparation. Cortices were dissected out from brains of 200-300 g Sprague-Dawley rats (Charles River Laboratories, L'Arbresle, France). Tissues were homogenized in 6 volumes (vol/wt) of 10% sucrose at 4° C. using a glass-teflon homogenizer. The homogenate was centrifuged at 1250 g for 10 min, and the supernatant was centrifuged at 40,000 g for 20 min (4° C.). The pellet was resuspended in 25 ml water using a Polytron disrupter (Kinematica AG, Luzern, Switzerland) and centrifuged for 10 min at 3000 g. (4° C.). The supernatant was centrifuged at 40,000 g for 20 min (4° C.). The supernatant was discarded and the pellet washed twice by resuspension in 10 volumes 5 mM HEPES-KOH, pH 7.4. The homogenate was frozen and thawed twice and centrifuged at 40,000 g for 20 min. The final pellet was resuspended in 5 mM HEPES-KOH, pH 7.4 and stored at −80° C. before its use. Protein concentration was determined by the Bradford method (Bio-Rad protein assay, Reinach, Switzerland) with bovine serum albumin as standard.
[^35S]GTPγS binding assay. Measurement of mGluR2 positive allosteric modulators properties in rat cortical membranes was performed as follows: rat cortical membrane (1.5 μg) were incubated in 96-well microplates for 15 min at 30° C. in assay buffer (50 mM HEPES pH 7.4, 100 mM NaCl, 5 mM MgCl2, 10 μM GDP, 10 μg/ml saponin, EGTA 0.2 mM) with increasing concentrations of positive allosteric modulator (from 1 nM to 10 μM) and a minimal concentration of DCG-IV or LY379268, a selective mGluR2 agonist, that has been determined in previous experiments and that corresponds to the EC20, a concentration that gives 20% of the maximal response of the agonist, and is in accordance to published data (Pin et al. (1999) Eur. J. Pharmacol. 375:277-294). […]

T1 sequence (P31421 19-872): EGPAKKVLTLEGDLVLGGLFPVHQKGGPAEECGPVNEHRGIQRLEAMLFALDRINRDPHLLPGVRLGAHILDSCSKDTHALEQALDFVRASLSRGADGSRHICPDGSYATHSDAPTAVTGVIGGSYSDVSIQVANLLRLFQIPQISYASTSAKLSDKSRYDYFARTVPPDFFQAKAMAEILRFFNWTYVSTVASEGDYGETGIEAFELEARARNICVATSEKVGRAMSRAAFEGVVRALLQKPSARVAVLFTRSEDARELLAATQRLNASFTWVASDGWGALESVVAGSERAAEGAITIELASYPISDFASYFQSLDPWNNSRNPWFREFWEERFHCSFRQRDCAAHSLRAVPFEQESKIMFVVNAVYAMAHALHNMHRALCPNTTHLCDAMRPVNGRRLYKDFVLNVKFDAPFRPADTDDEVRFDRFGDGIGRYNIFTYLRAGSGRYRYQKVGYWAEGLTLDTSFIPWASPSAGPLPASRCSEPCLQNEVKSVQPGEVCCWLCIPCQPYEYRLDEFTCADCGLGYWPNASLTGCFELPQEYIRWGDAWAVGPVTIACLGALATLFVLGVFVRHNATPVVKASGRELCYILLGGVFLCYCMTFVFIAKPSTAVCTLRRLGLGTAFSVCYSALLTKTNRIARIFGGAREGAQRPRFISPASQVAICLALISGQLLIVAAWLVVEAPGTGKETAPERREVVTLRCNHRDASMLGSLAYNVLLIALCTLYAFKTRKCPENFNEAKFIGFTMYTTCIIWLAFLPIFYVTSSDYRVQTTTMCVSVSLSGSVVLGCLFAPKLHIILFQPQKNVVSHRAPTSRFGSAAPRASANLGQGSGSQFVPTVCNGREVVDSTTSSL

Row | SMILES | melting point | increase of the [GTPi^5S] binding induced by 50 nM of DCG-IV (native rat mGluR2; 10 μM compound together with mGluR2 agonist, compared to agonist alone, Figure B) | Activity: left-ward shift of agonist mGluR2 concentration-response curve (native rat mGluR2) | agonistic activity when tested in the absence of 50 nM DCG-IV (native rat mGluR2; 10 μM compound, compared to buffer value (0% of maximal response), Figure B)
1 | Cc1nc(NCc2ccccc2)c2cc(C)sc2n1 [Compound 5, N-benzyl-2,6-dimethylthieno[2,3-d]pyrimidin-4-amine] | 124.2 °C | – | + (left-ward shift of agonist mGluR2 concentration-response curve [<2-fold]) | –
2 | CC(=O)Nc1ccc(CCNc2nc(C)nc3sc(C)cc23)cc1 [Compound 43, N-(4-(2-(2,6-dimethylthieno[2,3-d]pyrimidin-4-ylamino)ethyl)-phenyl)acetamide] | 248 °C | – | ++ (left-ward shift of agonist mGluR2 concentration-response curve [2- to 3.5-fold]) | –
3 | Cc1nc(NCCc2cccnc2)c2cc(C)sc2n1 [Compound 49, 2,6-dimethyl-N-(2-(pyridin-3-yl)ethyl)thieno[2,3-d]pyrimidin-4-amine] | 138 °C | – | + (left-ward shift of agonist mGluR2 concentration-response curve [<2-fold]) | –
4 | OCc1cc2c(NCCc3ccccc3)ncnc2s1 [Compound 58, (4-(phenethylamino)thieno[2,3-d]pyrimidin-6-yl)methanol] | 155 °C and 155 to 155.5 °C | – | ++ (left-ward shift of agonist mGluR2 concentration-response curve [2- to 3.5-fold]) | –
5 | COc1ccc(CCNc2nc(C)nc3sc(Cc4ccccc4)cc23)cc1 [Compound 61, N-(4-methoxyphenethyl)-6-benzyl-2-methylthieno[2,3-d]pyrimidin-4-amine] | – | – | ++ (left-ward shift of agonist mGluR2 concentration-response curve [2- to 3.5-fold]) | –
6 | CCCc1cc2c(NCCc3ccccc3)nc(NC)nc2s1 [Compound 81, N2-methyl-N4-phenethyl-6-propylthieno[2,3-d]pyrimidine-2,4-diamine] | 162 °C | – | – | –
7 | CCCc1cc2c(NCCc3ccc(O)cc3)ncnc2s1 [Compound 82, 4-(2-(6-propylthieno[2,3-d]pyrimidin-4-ylamino)ethyl)phenol] | 123.5 °C | – | +++ (left-ward shift of agonist mGluR2 concentration-response curve [>3.5-fold]) | –
8 | CCCc1cc2c(NCCc3ccc(O)cc3)nc(Cl)nc2s1 [Compound 84, 4-(2-(2-chloro-6-propylthieno[2,3-d]pyrimidin-4-ylamino)ethyl)phenol] | 135 °C | – | – | –
9 | CCCc1cc2c(NCCc3ccc(OC)cc3)nc(OC)nc2s1 [Compound 86, N-(4-methoxyphenethyl)-2-methoxy-6-propylthieno[2,3-d]pyrimidin-4-amine] | 92 °C | – | – | –
10 | CCCc1cc2c(NCCc3ccc(OC)c(OC)c3)ncnc2s1 [Compound 87, N-(3,4-dimethoxyphenethyl)-6-propylthieno[2,3-d]pyrimidin-4-amine] | 128.5 °C | – | – | –
11 | CCCc1cc2c(NCCc3ccc(OCc4nnn[nH]4)cc3)nc(OC)nc2s1 [Compound 88, N-(4-((1H-tetrazol-5-yl)methoxy)phenethyl)-2-methoxy-6-propylthieno[2,3-d]pyrimidin-4-amine] | 181 °C | – | – | –
12 | CCCc1cc2c(NCCNc3ccccc3)ncnc2s1 [Compound 89, N-(2-(phenylamino)ethyl)-6-propylthieno[2,3-d]pyrimidin-4-amine] | 68 °C | – | – | –
13 | COc1cccc(CNc2ncnc3sc(C(C)C)cc23)c1 [Compound 91, N-(3-methoxybenzyl)-6-isopropylthieno[2,3-d]pyrimidin-4-amine] | 65 °C | – | – | –

The next lines start with results.

Row | melting point | increase of the [GTPi^5S] binding induced by 50 nM of DCG-IV (native rat mGluR2; 10 μM compound together with mGluR2 agonist, compared to agonist alone, Figure B) | SMILES | Activity: left-ward shift of agonist mGluR2 concentration-response curve (native rat mGluR2) | agonistic activity when tested in the absence of 50 nM DCG-IV (native rat mGluR2; 10 μM compound, compared to buffer value (0% of maximal response), Figure B)
14 | 138.5 °C | – | COc1nc(NCCc2ccccc2)c2cc(C)sc2n1 [Compound 15, 2-methoxy-6-methyl-N-phenethylthieno[2,3-d]pyrimidin-4-amine] | +++ (left-ward shift of agonist mGluR2 concentration-response curve [>3.5-fold]) | –
15 | 129 °C | significantly potentiated | COc1ccc(CCNc2nc(C)nc3sc(C)cc23)cc1 [Compound 28, N-(4-methoxyphenethyl)-2,6-dimethylthieno[2,3-d]pyrimidin-4-amine] | – | no statistically significant agonistic activity
16 | 127 °C | – | Cc1nc(NCCc2ccc(N)cc2)c2cc(C)sc2n1 [Compound 42, N-(4-aminophenethyl)-2,6-dimethylthieno[2,3-d]pyrimidin-4-amine] | ++ (left-ward shift of agonist mGluR2 concentration-response curve [2- to 3.5-fold]) | –
17 | 205 °C | – | Cc1nc(NCCc2ccc(OCc3nn[nH]n3)cc2)c2cc(C)sc2n1 [Compound 46, N-(4-((2H-tetrazol-5-yl)methoxy)phenethyl)-2,6-dimethylthieno[2,3-d]pyrimidin-4-amine] | +++ (left-ward shift of agonist mGluR2 concentration-response curve [>3.5-fold]) | –
18 | 78 °C | – | CCc1cc2c(NCCc3ccc(OC)c(OC)c3)nc(C)nc2s1 [Compound 73, N-(3,4-dimethoxyphenethyl)-6-ethyl-2-methylthieno[2,3-d]pyrimidin-4-amine] | – | –
19 | 124.5 °C | – | CCc1cc2c(NCCCc3ccccc3)ncnc2s1 [Compound 75, 6-ethyl-N-(3-phenylpropyl)thieno[2,3-d]pyrimidin-4-amine] | ++ (left-ward shift of agonist mGluR2 concentration-response curve [2- to 3.5-fold]) | –
20 | 118 °C | – | CCCc1cc2c(NCc3cccc(OC)c3)ncnc2s1 [Compound 77, N-(3-methoxybenzyl)-6-propylthieno[2,3-d]pyrimidin-4-amine] | – | –
21 | 110.5 °C | – | CCCc1cc2c(NCCc3ccccc3)ncnc2s1 [Compound 79, N-phenethyl-6-propylthieno[2,3-d]pyrimidin-4-amine] | +++ (left-ward shift of agonist mGluR2 concentration-response curve [>3.5-fold]) | –
22 | 79 °C | – | CCCc1cc2c(NCCc3ccc(O)cc3)nc(OC)nc2s1 [Compound 83, 4-(2-(2-methoxy-6-propylthieno[2,3-d]pyrimidin-4-ylamino)ethyl)phenol] | – | –
23 | 102 °C | – | CCCc1cc2c(NCCc3ccc(OC)cc3)ncnc2s1 [Compound 85, N-(4-methoxyphenethyl)-6-propylthieno[2,3-d]pyrimidin-4-amine] | – | –
24 | 117.5 °C | – | CC(C)c1cc2c(NCCc3ccccc3)ncnc2s1 [Compound 92, 6-isopropyl-N-phenethylthieno[2,3-d]pyrimidin-4-amine] | – | –
25 | 108.5 °C | – | COc1ccc(CCNc2ncnc3sc(C(C)C)cc23)cc1 [Compound 93, N-(4-methoxyphenethyl)-6-isopropylthieno[2,3-d]pyrimidin-4-amine] | – | –
26 | 95 °C | – | CCCCc1cc2c(NCCc3ccccc3)ncnc2s1 [Compound 94, 6-butyl-N-phenethylthieno[2,3-d]pyrimidin-4-amine] | – | –
27 | 88 °C | – | CCc1cc2c(NCCc3ccccc3)ccnc2s1 [Compound 96, 2-ethyl-N-phenethylthieno[2,3-b]pyridin-4-amine] | +++ (left-ward shift of agonist mGluR2 concentration-response curve [>3.5-fold]) | –
